# Reference: PMC12362587, “Untargeted Diversity-Oriented Synthesis for the Discovery of New Antitumor Agents: An Integrated Approach of Inverse Virtual Screening, Bioinformatics, and Omics for Target Deconvolution” (Journal of Medicinal Chemistry, 2025)
# Legend:
# HEPG2 = test: MTT cell viability assay; type: cell-based; details: Homo sapiens, 24 h, compounds 0.01–40 μM, read-out: In Vitro Cytotoxicity, EC50 ± SD, HEPG2
# Excerpt: (§1) Initially, we phenotypically screened the synthesized compounds over a panel of tumor cell lines composed of HEPG2, A375, SHSY5Y, MCF7, and A549 derived from liver tumor, melanoma, neuroblastoma, breast cancer, and lung adenocarcinoma, respectively. We also considered the HaCaT cell line, coming from keratinocytes, as a healthy control line. As reference, cytotoxic chemotherapeutic agent 5-fluorouracil (5-FU) has been used. The results obtained performing the MTT (3-(4,5-dimethylthiazolyl-2)-2,5-diphenyltetrazolium bromide) assay are summarized in Table .
# The human hepatoma HEPG2 cell line was obtained from American Type Culture Collection (ATCC, Rockville, MD, USA). Cells were grown in Eagle’s Minimum Essential Medium (EMEM) supplemented with 10% (v/v) fetal bovine serum (FBS), 2 mM L-glutamine, 1% (v/v) nonessential amino acids, 100 U/mL penicillin, and 0.1 mg/mL streptomycin.
# (§2) Cell viability was established by measuring mitochondrial metabolic activity with MTT. In brief, HEPG2 (1 × 10^4 cells/well), A375 (2 × 10^3 cells/well), HaCaT (3 × 10^3 cells/well), A549 (3 × 10^3 cells/well), SHSY5Y (2 × 10^4 cells/well), and MCF 7 (5 × 10^3 cells/well) were plated into 96-well plates for 24 h, then the compounds (0.01–40 μM) were added. After 24h, cells were replaced with a fresh medium containing 0.5 mg/mL MTT. Cells were incubated 1–3 h at 37 °C, then the medium was discarded, and formazan blue crystals in the cells were dissolved in 100 μL per well of a solution containing isopropanol/HCl 0.1 M. The absorbance was measured at 570 nm using a microplate reader (Multiskan Go, Thermo Scientific, Waltham, MA, USA). Cell viability was expressed as a percentage relative to the untreated cells cultured in medium with 0.1% DMSO and set to 100%, whereas 10% DMSO was used as positive control and set to 0% of viability. The EC50 values were calculated using GraphPad Prism 8.0 software by nonlinear regression of dose–response inhibition.
# MTT cell viability assay = type: cell-based, human; details: human, HaCaT keratinocyte cells (healthy control line), 24 h, compounds 0.01–40 μM, healthy control line, read-out: In Vitro Cytotoxicity, EC50 ± SD, HaCaT
# Excerpt: as §1
# (§3) The human neuroblastoma SHSY5Y, melanoma A375, human breast cancer MCF7, nonsmall lung cancer A549, and human epidermal keratinocyte HaCaT cell lines were obtained from ATCC and were grown in Dulbecco’s Modified Eagle Medium (DMEM) supplemented with 10% (v/v) FBS, 2 mM L-glutamine, 100 U/mL penicillin, and 0.1 mg/mL streptomycin.
# as §2
# MCF7 = test: MTT cell viability assay; type: cell-based; details: Homo sapiens, 24 h, compounds 0.01–40 μM, read-out: In Vitro Cytotoxicity, EC50 ± SD, MCF7
# Excerpt: as §1, §3, §2
# A375 = test: MTT cell viability assay; type: cell-based; details: Homo sapiens, A-375, 24 h, compounds 0.01–40 μM, read-out: In Vitro Cytotoxicity, EC50 ± SD, A375
# Excerpt: as §1, §3, §2
# A549 = test: MTT cell viability assay; type: cell-based; details: Homo sapiens, 24 h, compounds 0.01–40 μM, read-out: In Vitro Cytotoxicity, EC50 ± SD, A549
# Excerpt: as §1, §3, §2
# SHSY5Y = test: MTT cell viability assay; type: cell-based; details: Homo sapiens, SH-SY5Y, 24 h, compounds 0.01–40 μM, read-out: In Vitro Cytotoxicity, EC50 ± SD, SHSY5Y
# Excerpt: as §1, §3, §2
# HaCaT = test: MTT cell viability assay; type: cell-based, human; details: in words
# Excerpt: as §1, §3, §2
# [1] = test system: cancer cell lines (HEPG2, A375, SHSY5Y, MCF7, A549); test: MTT cytotoxicity screen over panel of tumor cell lines; type: cell-based, human; details: in words
# Excerpt: as §1, §2
compound,measurement,setting,value
"O=c1[nH]cc(F)c(=O)[nH]1 [Compound 5-FU, 5-fluorouracil, reference compound]",EC50,HEPG2,0.056 ± 0.021 µM
same,EC50 at 24 h,MTT cell viability assay,0.481 ± 0.059 µM
same,EC50,MCF7,0.023 ± 0.009 µM
same,EC50,A375,0.032 ± 0.011 µM
same,EC50,A549,0.047 ± 0.02 µM
same,EC50,SHSY5Y,0.072 ± 0.026 µM
"CC(C)C[C@@H](C(=O)NCc1ccccc1)N1Cc2ccccc2OC1=O [Compound 7, (S)-N-Benzyl-4-methyl-2-(2-oxo-2H-benzo[e][1,3]oxazin-3(4H)-yl)pentanamide]",EC50,HEPG2,35.6 ± 3.22 µM
same,cytotoxicity effect over the HaCaT cell lines,HaCaT,exhibited cytotoxicity effect
same,EC50 at 24 h,MTT cell viability assay,38.4 ± 4.54 µM
same,EC50,MCF7,20.2 ± 3.57 µM
same,EC50,A375,13.7 ± 1.4 µM
same,EC50,A549,> 40 µM
same,EC50,SHSY5Y,11.5 ± 2.05 µM
"CC(C)COC(=O)[C@H](Cc1ccccc1)n1c(=O)[nH]c2ccccc2c1=O [Compound 22, Isobutyl (S)-2-(2,4-Dioxo-1,4-dihydroquinazolin-3(2H)-yl)-3-phenylpropanoate]",EC50,HEPG2,4.28 ± 2.04 µM
same,EC50 at 24 h,MTT cell viability assay,27 ± 4.09 µM
same,EC50,MCF7,11.2 ± 3.14 µM
same,EC50,A375,7.12 ± 2.54 µM
same,EC50,A549,36.3 ± 5.72 µM
same,EC50,SHSY5Y,30.4 ± 3.92 µM
"CC(C)C[C@@H](C(=O)OCc1ccccc1)n1c(=O)[nH]c2ccccc2c1=O [Compound 23, Benzyl (S)-2-(2,4-Dioxo-1,4-dihydroquinazolin-3(2H)-yl)-4-methylpentanoate]",EC50,HEPG2,1.7 ± 1.05 µM
same,"selectivity, tumor cell lines versus healthy line",[1],lack of selectivity
same,EC50 at 24 h,MTT cell viability assay,10.2 ± 1.84 µM
same,EC50,MCF7,12.2 ± 2.64 µM
same,EC50,A375,3.88 ± 1.64 µM
same,EC50,A549,4.12 ± 1.89 µM
same,EC50,SHSY5Y,3.5 ± 1.41 µM
"O=C1N[C@@H](Cc2ccccc2)C(=O)N(Cc2ccc(C(F)(F)F)cc2)c2ccccc21 [Compound 28, (S)-3-Benzyl-1-(4-(trifluoromethyl)benzyl)-3,4-dihydro-1H-benzo[e][1,4]diazepine-2,5-dione]",EC50,HEPG2,11.1 ± 2.25 µM
same,"selectivity, tumor cell lines versus healthy line",[1],lack of selectivity
same,EC50 at 24 h,MTT cell viability assay,26.9 ± 4.4 µM
same,EC50,MCF7,11.7 ± 3.12 µM
same,EC50,A375,13 ± 2.1 µM
same,EC50,A549,8.8 ± 1.37 µM
same,EC50,SHSY5Y,10.7 ± 1.26 µM
"CC(C)C[C@@H]1NC(=O)c2ccccc2N(Cc2ccc(C(F)(F)F)cc2)C1=O [Compound 29, (S)-3-Isobutyl-1-(4-(trifluoromethyl)benzyl)-3,4-dihydro-1H-benzo[e][1,4]diazepine-2,5-dione]",EC50,HEPG2,25.8 ± 2.74 µM
same,EC50 at 24 h,MTT cell viability assay,> 40 µM
same,EC50,MCF7,> 40 µM
same,EC50,A375,29.4 ± 4.43 µM
same,EC50,A549,> 40 µM
same,EC50,SHSY5Y,> 40 µM
"O=C1[C@H](Cc2ccccc2)N(Cc2ccc(C(F)(F)F)cc2)C(=O)c2ccccc2N1Cc1ccc(C(F)(F)F)cc1 [Compound 30, (S)-3-Benzyl-1,4-bis(4-(trifluoromethyl)benzyl)-3,4-dihydro-1H-benzo[e][1,4]diazepine-2,5-dione]",EC50,HEPG2,5.06 ± 1.73 µM
same,EC50 at 24 h,MTT cell viability assay,> 40 µM
same,EC50,MCF7,13.8 ± 3.11 µM
same,EC50,A375,7.44 ± 2.12 µM
same,EC50,A549,> 40 µM
same,EC50,SHSY5Y,37.3 ± 4.45 µM
"CC(C)C[C@H]1CNc2ccccc2C(=O)N1Cc1ccc(C(F)(F)F)cc1 [Compound 33, (S)-3-Isobutyl-4-(4-(trifluoromethyl)benzyl)-1,2,3,4-tetrahydro-5H-benzo[e][1,4]diazepin-5-one]",EC50,HEPG2,2.69 ± 0.85 µM
same,"selectivity, tumor cell lines versus healthy line",[1],lack of selectivity
same,EC50 at 24 h,MTT cell viability assay,9.62 ± 1.12 µM
same,EC50,MCF7,13.9 ± 2.78 µM
same,EC50,A375,2.51 ± 1.02 µM
same,EC50,A549,10.4 ± 1.01 µM
same,EC50,SHSY5Y,13.5 ± 2.22 µM
"CC(C)C[C@H]1CN(Cc2ccc(C(F)(F)F)cc2)c2ccccc2C(=O)N1Cc1ccc(C(F)(F)F)cc1 [Compound 34, (S)-3-Isobutyl-1,4-bis(4-(trifluoromethyl)benzyl)-1,2,3,4-tetrahydro-5H-benzo[e][1,4]diazepin-5-one]",EC50,HEPG2,11.5 ± 2.16 µM
same,EC50 at 24 h,MTT cell viability assay,> 40 µM
same,EC50,MCF7,> 40 µM
same,EC50,A375,5.14 ± 2.15 µM
same,EC50,A549,17.6 ± 3.65 µM
same,EC50,SHSY5Y,> 40 µM
"CC(C)CN1Cc2ccccc2NC[C@@H]1Cc1ccccc1 [Compound 37, (S)-3-Benzyl-4-isobutyl-2,3,4,5-tetrahydro-1H-benzo[e][1,4]diazepine]",EC50,HEPG2,> 40 µM
same,EC50 at 24 h,MTT cell viability assay,> 40 µM
same,EC50,MCF7,> 40 µM
same,EC50,A375,8.92 ± 2.72 µM
same,EC50,A549,> 40 µM
same,EC50,SHSY5Y,> 40 µM
"CC(C)C[C@H]1CN(Cc2ccc(C(F)(F)F)cc2)c2ccccc2CN1Cc1ccc(C(F)(F)F)cc1 [Compound 38, (S)-3-Isobutyl-1,4-bis(4-(trifluoromethyl)benzyl)-2,3,4,5-tetrahydro-1H-benzo[e][1,4]diazepine]",EC50,HEPG2,15.4 ± 1.71 µM
same,EC50 at 24 h,MTT cell viability assay,> 40 µM
same,EC50,MCF7,> 40 µM
same,EC50,A375,23.1 ± 3.1 µM
same,EC50,A549,37.9 ± 1.64 µM
same,EC50,SHSY5Y,> 40 µM
"CC(C)C[C@@H]1NC(=O)[C@H](Cc2ccccc2)N(Cc2ccccc2)C1=O [Compound 41, (3S,6S)-1,6-Dibenzyl-3-isobutylpiperazine-2,5-dione]",EC50,HEPG2,> 40 µM
same,cytotoxic activity over the cancer cell lines,[1],no activity
same,EC50 at 24 h,MTT cell viability assay,> 40 µM
same,EC50,MCF7,> 40 µM
same,EC50,A375,> 40 µM
same,EC50,A549,> 40 µM
same,EC50,SHSY5Y,> 40 µM
"CC(C)CN1c2ccccc2NC(=O)[C@@H]1Cc1ccccc1 [Compound 48, (S)-3-Benzyl-4-isobutyl-3,4-dihydroquinoxalin-2(1H)-one]",EC50,HEPG2,> 40 µM
same,cytotoxic activity over the cancer cell lines,[1],no activity
same,EC50 at 24 h,MTT cell viability assay,> 40 µM
same,EC50,MCF7,> 40 µM
same,EC50,A375,> 40 µM
same,EC50,A549,35.5 ± 5.48 µM
same,EC50,SHSY5Y,> 40 µM
"CC(C)C[C@H]1C(=O)Nc2ccccc2N1Cc1ccccc1 [Compound 49, (S)-4-Benzyl-3-isobutyl-3,4-dihydroquinoxalin-2(1H)-one]",EC50,HEPG2,> 40 µM
same,cytotoxic activity over the cancer cell lines,[1],no activity
same,EC50 at 24 h,MTT cell viability assay,> 40 µM
same,EC50,MCF7,> 40 µM
same,EC50,A375,> 40 µM
same,EC50,A549,> 40 µM
same,EC50,SHSY5Y,> 40 µM
"CC(C)C[C@@H]1NC(=O)OCc2ccccc2NC1=O [Compound 52, (S)-3-Isobutyl-1,3,4,7-tetrahydrobenzo[g][1,3,6]oxadiazonine-2,5-dione]",EC50,HEPG2,> 40 µM
same,cytotoxic activity over the cancer cell lines,[1],no activity
same,EC50 at 24 h,MTT cell viability assay,> 40 µM
same,EC50,MCF7,> 40 µM
same,EC50,A375,> 40 µM
same,EC50,A549,> 40 µM
same,EC50,SHSY5Y,> 40 µM
"CC(C)COC(=O)[C@H](Cc1ccccc1)N1Cc2ccccc2NC1=O [Compound 64, Isobutyl (S)-2-(2-Oxo-1,4-dihydroquinazolin-3(2H)-yl)-3-phenylpropanoate]",EC50,HEPG2,7.97 ± 2.45 µM
same,"selectivity, tumor cell lines versus healthy line",[1],lack of selectivity
same,EC50 at 24 h,MTT cell viability assay,24.4 ± 4.51 µM
same,EC50,MCF7,9.55 ± 1.05 µM
same,EC50,A375,8.64 ± 1.66 µM
same,EC50,A549,32.3 ± 5.76 µM
same,EC50,SHSY5Y,28.2 ± 3.2 µM
